Holding throughout (format): functional
The test system of test [1] is Pseudomonas aeruginosa. Kind of test: Antimicrobial activity against Pseudomonas aeruginosa isolate PA27853 by Etest method.
Test [2] deals with Pseudomonas aeruginosa. Nature of the test: Antimicrobial activity against Pseudomonas aeruginosa isolate PA5441 harboring gyrA T83I and parC S87L mutant gene by Etest method.
The test system of test [3] is Pseudomonas aeruginosa. Nature of the test: Antimicrobial activity against Pseudomonas aeruginosa isolate PA5513 harboring gyrA T83I and parC S87L mutant gene by Etest method.
Test [4] deals with Pseudomonas aeruginosa. Nature of the test: Antimicrobial activity against Pseudomonas aeruginosa isolate PA5600 harboring gyrA T83I and parC S87L mutant gene by Etest method.
Test [5] concerns Pseudomonas aeruginosa. Kind of test: Antimicrobial activity against MexB overexpressing Pseudomonas aeruginosa isolate PA6218 harboring gyrA D87N mutant gene by Etest method.
Test [6] concerns Pseudomonas aeruginosa. Kind of test: Antimicrobial activity against Pseudomonas aeruginosa isolate PA7461 harboring gyrA T83I and parC S87L mutant gene by Etest method.
The test system of test [7] is Pseudomonas aeruginosa. Nature of the test: Antimicrobial activity against MexB overexpressing Pseudomonas aeruginosa isolate PA8108 harboring gyrA T83I mutant gene by Etest method.
The subject of test [8] is Pseudomonas aeruginosa. Kind of test: Antimicrobial activity against Pseudomonas aeruginosa isolate PA8119 harboring gyrA T83I and parC S87L mutant gene by Etest method.
In test [9] the test system is Pseudomonas aeruginosa. Kind of test: Antimicrobial activity against Pseudomonas aeruginosa isolate PA8721 harboring gyrA T83I and parC S87L mutant gene by Etest method.
For test [10], the system named is Pseudomonas aeruginosa. Kind of test: Antimicrobial activity against Pseudomonas aeruginosa isolate PA8858 harboring gyrA T83I and parC S87L mutant gene by Etest method.
Test [11] relates to Pseudomonas aeruginosa. Kind of test: Antimicrobial activity against Pseudomonas aeruginosa isolate PA9019 harboring gyrA D87G and parC S87L mutant gene by Etest method.
For test [12], the system named is Pseudomonas aeruginosa. Nature of the test: Antimicrobial activity against MexB overexpressing Pseudomonas aeruginosa isolate PA9087 harboring gyrA T83I mutant gene by Etest method.
Test [13] has as its system Pseudomonas aeruginosa. Nature of the test: Antimicrobial activity against Pseudomonas aeruginosa isolate PA641 parC P105T mutant gene by Etest method.
The test system of test [14] is Pseudomonas aeruginosa. Kind of test: Antimicrobial activity against MexB overexpressing Pseudomonas aeruginosa isolate PA707 harboring gyrA T83I and parC S87L mutant gene by Etest method.
Test [15] has as its system Pseudomonas aeruginosa. Kind of test: Antimicrobial activity against MexB overexpressing Pseudomonas aeruginosa isolate PA1165 harboring gyrA T83I and parC S87L mutant gene by Etest method.
The subject of test [16] is Pseudomonas aeruginosa. Kind of test: Antimicrobial activity against Pseudomonas aeruginosa isolate PA1166 harboring gyrA T83I and parC S87L mutant gene by Etest method.
Test [17] relates to Pseudomonas aeruginosa. Kind of test: Antimicrobial activity against MexB overexpressing Pseudomonas aeruginosa isolate PA1327 harboring gyrA T83I and parC S87L mutant gene by Etest method.
The subject of test [18] is Pseudomonas aeruginosa. Kind of test: Antimicrobial activity against MexB overexpressing Pseudomonas aeruginosa isolate PA1328 harboring gyrA T83I and parC S87L mutant gene by Etest method.
The subject of test [19] is Pseudomonas aeruginosa. Kind of test: Antimicrobial activity against MexB overexpressing Pseudomonas aeruginosa isolate PA1378 harboring gyrA T83I mutant gene by Etest method.

Values after ≈ are worked out from the molar mass of the structure shown.

As to `C[C@@H](O)[C@H]1C(=O)N2C(C(=O)O)=C(S[C@@H]3CN[C@H](CNS(N)(=O)=O)C3)[C@H](C)[C@H]12` [DORIPENEM], the MIC50 – broadly, the lowest concentration that inhibits either 50% of growth or 50% of the strains tested, depending on the study – in the test on Pseudomonas aeruginosa [1] was 0.19 mg/L (≈ 0.452 µM); in the test on Pseudomonas aeruginosa [2], 4 mg/L (≈ 9.51 µM); in the test on Pseudomonas aeruginosa [4], 4 mg/L (≈ 9.51 µM); against Pseudomonas aeruginosa [6], 12 mg/L (≈ 28.5 µM); against Pseudomonas aeruginosa [8] it was 16 mg/L (≈ 38 µM); against Pseudomonas aeruginosa [10], 8 mg/L (≈ 19 µM). Also, the MIC50 was found to be 6 mg/L (≈ 14.3 µM) in the test on Pseudomonas aeruginosa [12]; 12 mg/L (≈ 28.5 µM) in the test on Pseudomonas aeruginosa [15]; 24 mg/L (≈ 57.1 µM) with Pseudomonas aeruginosa [16]; 8 mg/L (≈ 19 µM) in the test with Pseudomonas aeruginosa [17]; 3 mg/L (≈ 7.13 µM) with Pseudomonas aeruginosa [18]. Also, the MIC90 (usually an inhibitory concentration at the 90% level, which refers to growth in some studies and to a panel of isolates in others) is above 32 mg/L with Pseudomonas aeruginosa [3]; above 32 mg/L in the test on Pseudomonas aeruginosa [5]; above 32 mg/L in the test on Pseudomonas aeruginosa [7]; 32 mg/L (≈ 76.1 µM) against Pseudomonas aeruginosa [9]; above 32 mg/L with Pseudomonas aeruginosa [11]; above 32 mg/L against Pseudomonas aeruginosa [13]. The MIC90 in the test on Pseudomonas aeruginosa [14] and in the test on Pseudomonas aeruginosa [19] was above 32 mg/L each time.
For COLISTIN, the MIC50 with Pseudomonas aeruginosa [1] is 1.5 mg/L; with Pseudomonas aeruginosa [2], 1.5 mg/L; against Pseudomonas aeruginosa [3], 1 mg/L; in the test with Pseudomonas aeruginosa [4], 1 mg/L; against Pseudomonas aeruginosa [5], 3 mg/L; with Pseudomonas aeruginosa [6] it was 2 mg/L. Moreover, the MIC50 with Pseudomonas aeruginosa [7] turned out to be 0.25 mg/L; against Pseudomonas aeruginosa [8], 1.5 mg/L; with Pseudomonas aeruginosa [9], 1.5 mg/L; against Pseudomonas aeruginosa [10] it was 1.5 mg/L; against Pseudomonas aeruginosa [11] it was 1.5 mg/L; in the test on Pseudomonas aeruginosa [12], 0.38 mg/L. Further, the MIC50 amounted to 1.5 mg/L in the test with Pseudomonas aeruginosa [13]; 1 mg/L with Pseudomonas aeruginosa [14]; 1.5 mg/L with Pseudomonas aeruginosa [15]; 1 mg/L with Pseudomonas aeruginosa [16]; 2 mg/L against Pseudomonas aeruginosa [17]; 1.5 mg/L with Pseudomonas aeruginosa [18]. Moreover, the MIC50 in the test with Pseudomonas aeruginosa [19] worked out at 2 mg/L.
On to POLYMYXIN B, for which the MIC50 in the test on Pseudomonas aeruginosa [1] is 1.5 mg/L; against Pseudomonas aeruginosa [2], 1.5 mg/L; against Pseudomonas aeruginosa [3], 1 mg/L; with Pseudomonas aeruginosa [4], 1.5 mg/L; with Pseudomonas aeruginosa [5] it was 1.5 mg/L; in the test on Pseudomonas aeruginosa [7], 0.25 mg/L. Also, the MIC50 stood at 1.5 mg/L against Pseudomonas aeruginosa [8]; 1.5 mg/L in the test on Pseudomonas aeruginosa [9]; 1 mg/L in the test on Pseudomonas aeruginosa [11]; 0.5 mg/L against Pseudomonas aeruginosa [12]; 1 mg/L against Pseudomonas aeruginosa [13]; 0.75 mg/L in the test on Pseudomonas aeruginosa [14]. The MIC50 in the test on Pseudomonas aeruginosa [15] was found to be 1.5 mg/L; with Pseudomonas aeruginosa [16], 0.75 mg/L; against Pseudomonas aeruginosa [17], 1 mg/L; against Pseudomonas aeruginosa [18], 1.5 mg/L; in the test with Pseudomonas aeruginosa [19] it was 1.5 mg/L.

For the origin of these results see ChEMBL document CHEMBL1240407, “Prevalence, resistance mechanisms, and susceptibility of multidrug-resistant bloodstream isolates of Pseudomonas aeruginosa” (2010).
